Reference: patent US20100292231A1, “Indazole Compounds for Treating Inflammatory Disorders, Demyelinating Disorders and Cancers” (priority 2007, published 2010)
Read-outs that look alike come from different tables or passages of the source.

Assays:
[1] = tested on: MV4-11 (leukemia) cell line; assay: sulforhodamine B (SRB) cytotoxicity assay; format: cell-based; conditions: Homo sapiens
Description: The cytotoxic activity of compounds listed in Table 5 was determined with a sulforhodamine B (SRB) assay on panel of cell lines, including MdaMb231 (breast cancer), MV4-11 (leukemia), PC-3 (prostate cancer), U266B1 (multiple myeloma), C7 macrophages, and Raw264.7 (murine macrophage-like cells).
Cells growing in relevant media were seeded in a 96 well plate and left to adhere overnight. Cells were plated at appropriate cell densities: • MV4-11: 20.000 cells/well • Mda-Mb231: 6000 cells/well • C7: 10.000 cells/well • Raw264.7: 2000 cells/well • PC-3: 6000 cells/well • U266B1: 40.000 cells/well.
After a 3 day incubation period (6 days for C7 and Raw264.7) cells were fixed with trichloroacetic acid (TCA) to end concentration of 10% for adherent cells and 16% end concentration for suspension cells for 1 hr at 4° C. before washing. Cells were stained with 0.4% sulforhodamine-B dye (SRB) in 1% acetic acid for 30 minutes and washed in 1% acetic acid. To solubilize the dye 100 μl 10 mM Tris, pH 10.5 was added and the absorbance was read at 564 nm. IC50 values were generated using the SoftMAX Pro™ software. The data is presented below in Tables 6 through 11.

FLT3 = target: T1, FLT3 (Homo sapiens, UniProt P36888); assay: SelectScreen FLT3 kinase dose response assay; format: biochemical; conditions: ATP 100 micromolar; for inhibition at 1 µM: read-out: FLT3 Inhibition E1000 (percent inhibition at 1000 nMolar); for EC50: dose response, 4 parameter Hill equation, read-out: FLT3 Inhibition EC50
T1 construct: purchased Invitrogen (SelectScreen platform)
T1 sequence (P36888 27-993): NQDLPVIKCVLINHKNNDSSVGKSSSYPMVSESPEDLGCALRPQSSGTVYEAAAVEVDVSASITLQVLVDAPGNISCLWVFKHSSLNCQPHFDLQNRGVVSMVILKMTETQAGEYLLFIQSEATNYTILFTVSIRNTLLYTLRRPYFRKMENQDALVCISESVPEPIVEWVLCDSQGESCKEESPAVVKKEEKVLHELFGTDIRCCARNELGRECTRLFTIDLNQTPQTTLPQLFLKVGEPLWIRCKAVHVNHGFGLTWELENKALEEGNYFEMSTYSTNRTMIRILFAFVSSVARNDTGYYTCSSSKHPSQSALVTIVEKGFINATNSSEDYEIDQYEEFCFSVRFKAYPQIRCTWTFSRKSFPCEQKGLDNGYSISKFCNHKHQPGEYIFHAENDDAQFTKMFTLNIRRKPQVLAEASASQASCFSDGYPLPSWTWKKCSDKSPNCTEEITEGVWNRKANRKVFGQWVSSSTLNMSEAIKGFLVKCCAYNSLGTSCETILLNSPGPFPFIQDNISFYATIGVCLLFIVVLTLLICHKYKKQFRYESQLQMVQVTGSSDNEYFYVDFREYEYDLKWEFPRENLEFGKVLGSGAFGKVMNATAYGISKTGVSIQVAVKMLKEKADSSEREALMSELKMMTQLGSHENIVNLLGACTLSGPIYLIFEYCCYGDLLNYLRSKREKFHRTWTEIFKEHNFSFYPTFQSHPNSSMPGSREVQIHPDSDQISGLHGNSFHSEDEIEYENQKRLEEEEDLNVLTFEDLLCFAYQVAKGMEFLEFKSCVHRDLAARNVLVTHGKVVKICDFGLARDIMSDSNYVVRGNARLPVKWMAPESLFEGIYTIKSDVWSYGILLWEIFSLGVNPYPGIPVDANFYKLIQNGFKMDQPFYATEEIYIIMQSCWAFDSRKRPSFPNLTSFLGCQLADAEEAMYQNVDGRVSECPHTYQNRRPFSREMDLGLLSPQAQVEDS
Description: The terms “IC50” and “EC50” are used interchangeably. As used herein, “EC50” refers to nMolar concentration at median percent inhibition determined by dose respose (DR) assay. As used herein, the term “E1000” refers to percent inhibition at 1000 nMolar determined by assay.
Testing of the compounds described in this invention was carried out using the SelectScreen™ platform from Invitrogen, Inc. (Carlsbad. Calif., USA) and the details of its performance are readily viewed via the web by linking to: http://www.invitrogen.com/downloads/SelectScrn_Brochure.pdf.
Briefly, the approach is based on treating each specific kinase with a unique substrate and optical reporter system in the presence of ATP at 100 micromolar. In controls, the substrate is phosphorylated and a baseline optimal response is recorded.
The compounds were then re-tested by adding graded amounts of putative inhibitor which were added in 5 separate increments to generate a dose response curve. The latter is obtained by fitting to a 4 parameter Hill equation, a sigmoid saturation equation.
For the compounds of this invention, the experimental conditions were as follows. The 2× FLT3/Tyr 02 peptide mixture was prepared in 50 mM HEPES pH 7.5, 0.01 BRIJ-35, 10 mM MgCl2, 1 mM EGTA. The final 10 uL kinase reaction consists of 0.6-76.0 ng FLT3 and 2 uM Tyr 02 peptide in 50 mM HEPES pH 7.5, 0.01% BRIJ-35, 10 mM MgCl2, 1 mM EGTA. After 1 hour kinase reaction incubation, 5 uL of a 1:64 dilution of development reagent A was added.

[2] = MV4-11, 72 h, 100 μM highest concentration, diluted 1:5, 3 day incubation, read-out: IC50 Measured Against MV4-11 Cell Line
[3] = MV4-11, Table 5 summary, read-out: IC50 SRB assay MV4-11
[4] = MV4-11, 72 h, 50 μM highest concentration, diluted 1:4, 3 day incubation, read-out: IC50 Measured Against MV4-11 Cell Line

SMILES | IC50 [1, 2] [nM] | IC50 [1, 3] [nM] | inhibition at 1 µM (FLT3; 1000 nMolar compound) [%] | EC50 (FLT3) [nM] | FLT3 Inhibition E1000 (percent inhibition at 1000 nMolar) (FLT3; 1000 nMolar compound) [%] | IC50 [1, 4] [nM]
CN(C)CCNc1ccc2ncn3c4ccc5[nH]ncc5c4c(=O)c1c23 [(XII)] | < 1 | < 1 | 98 | 11 | – | –
CC(CCN1CCOCC1)Nc1ccc2ncn3c4ccc5[nH]ncc5c4c(=O)c1c23 (centres unmarked) [(XVI)] | 121 | 121 | 99 | – | 98 | –
CCN(CC)c1ccc2ncn3c4ccc5[nH]ncc5c4c(=O)c1c23 [(VI)] | – | – | 100 | 5 | – | –
CN(C)CCCCCNc1ccc2ncn3c4ccc5[nH]ncc5c4c(=O)c1c23 [(III)] | – | – | 100 | 4 | – | –
CCN(CC)CCCNc1ccc2ncn3c4ccc5[nH]ncc5c4c(=O)c1c23 [Compound (XV)] | – | < 1 | 99 | 11 | – | < 1
CN(C)c1ccc2ncn3c4ccc5[nH]ncc5c4c(=O)c1c23 [(IX)] | – | – | 98 | 9 | – | –
CN1CCN(CCCNc2ccc3ncn4c5ccc6[nH]ncc6c5c(=O)c2c34)CC1 [(XVII)] | – | 82 | 99 | 8 | – | 82
O=c1c2c(NCCCN3CCOCC3)ccc3ncn(c4ccc5[nH]ncc5c14)c32 [(X)] | 2 | 2 | 98 | 11 | – | –
CCN(CC)CCNc1ccc2ncn3c4ccc(O)cc4c(=O)c1c23 [Symadex, 5-(2-(diethylamino)ethylamino)-8-hydroxy-6H-imidazo[4,5,1-de]acridin-6-one, reference compound] | 12 | 12 | 96 | 24 | – | 28
O=c1c2c(NCCN3CCOCC3)ccc3ncn(c4ccc5[nH]ncc5c14)c32 [Compound (V)] | – | – | 95 | 30 | – | –
CCN(CC)CCNc1ccc2ncn3c4ccc5[nH]ncc5c4c(=O)c1c23 [(VIII)] | – | – | 87 | 69 | – | –
CN(C)CCCNc1ccc2ncn3c4ccc5[nH]ncc5c4c(=O)c1c23 [Compound (IV)] | < 1 | < 1 | 98 | 14 | – | –
CNc1ccc2ncn3c4ccc5[nH]ncc5c4c(=O)c1c23 [(VII)] | – | – | 99 | 5 | – | –
